Data published in the supplement of paper PMC10307832.

Columns and labels:
Assay in all cases: relative viability (nuclei count vs DMSO), 5 days (fraction); higher = more cells survive
Neratinib + AZD7762 = compound: CCOc1cc2ncc(C#N)c(Nc3ccc(OCc4ccccn4)c(Cl)c3)c2cc1NC(=O)/C=C/CN(C)C [Neratinib] + NC(=O)Nc1cc(-c2cccc(F)c2)sc1C(=O)N[C@H]1CCCNC1 [AZD7762] (partner 0.2 µM)
How it was run: (§1)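 Relative viability equals treated-well nuclei counts divided by vehicle-well nuclei counts. Counts came from 4× images of lung cancer cell lines grown in 1536-well plates for 5 days after pin-tool dosing on the day after seeding. Dosing used one drug alone or a fixed anchor-drug dose plus five library-drug doses (not always all listed) in √10 steps, and values are medians of duplicate plates.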

Neratinib + Luminespib = compound: CCOc1cc2ncc(C#N)c(Nc3ccc(OCc4ccccn4)c(Cl)c3)c2cc1NC(=O)/C=C/CN(C)C [Neratinib] + CCNC(=O)c1noc(-c2cc(C(C)C)c(O)cc2O)c1-c1ccc(CN2CCOCC2)cc1 [Luminespib] (partner 0.01 µM)
How it was run: as §1

Neratinib + Tozasertib = compound: CCOc1cc2ncc(C#N)c(Nc3ccc(OCc4ccccn4)c(Cl)c3)c2cc1NC(=O)/C=C/CN(C)C [Neratinib] + Cc1cc(Nc2cc(N3CCN(C)CC3)nc(Sc3ccc(NC(=O)C4CC4)cc3)n2)n[nH]1 [Tozasertib] (partner 0.1 µM)
How it was run: as §1

Neratinib + Foretinib = compound: CCOc1cc2ncc(C#N)c(Nc3ccc(OCc4ccccn4)c(Cl)c3)c2cc1NC(=O)/C=C/CN(C)C [Neratinib] + COc1cc2c(Oc3ccc(NC(=O)C4(C(=O)Nc5ccc(F)cc5)CC4)cc3F)ccnc2cc1OCCCN1CCOCC1 [Foretinib] (partner 0.25 µM)
How it was run: as §1

Cell Line | relative viability (Neratinib + AZD7762; first compound 0.01 µM) | relative viability (Neratinib + AZD7762; first compound 0.03162 µM) | relative viability (Neratinib + AZD7762; first compound 0.1 µM) | relative viability (Neratinib + AZD7762; first compound 0.3162 µM) | relative viability (Neratinib + AZD7762; first compound 1 µM) | relative viability (Neratinib + Luminespib; first compound 0.01 µM) | relative viability (Neratinib + Luminespib; first compound 0.03162 µM) | relative viability (Neratinib + Luminespib; first compound 0.1 µM) | relative viability (Neratinib + Luminespib; first compound 0.3162 µM) | relative viability (Neratinib + Luminespib; first compound 1 µM) | relative viability (Neratinib + Tozasertib; first compound 0.01 µM) | relative viability (Neratinib + Tozasertib; first compound 0.03162 µM) | relative viability (Neratinib + Tozasertib; first compound 0.1 µM) | relative viability (Neratinib + Tozasertib; first compound 0.3162 µM) | relative viability (Neratinib + Tozasertib; first compound 1 µM) | relative viability (Neratinib + Foretinib; first compound 0.01 µM) | relative viability (Neratinib + Foretinib; first compound 0.03162 µM) | relative viability (Neratinib + Foretinib; first compound 0.1 µM) | relative viability (Neratinib + Foretinib; first compound 0.3162 µM) | relative viability (Neratinib + Foretinib; first compound 1 µM)
NCI-H1651 | 0.503 | 0.521 | 0.416 | 0.328 | 0.246 | 0.723 | 1.32 | 0.654 | 0.896 | 0.546 | 0.743 | 0.792 | 0.543 | 0.58 | 0.312 | 0.789 | 0.867 | 0.715 | 0.593 | 0.464
NCI-H1666 | 0.929 | 0.946 | 0.783 | 0.653 | 0.611 | – | 0.951 | – | 0.752 | 0.846 | 0.615 | 0.563 | 0.538 | – | 0.541 | 0.973 | 0.912 | 0.754 | 0.646 | 0.721
NCI-H1734 | 0.584 | 0.555 | 0.457 | 0.505 | 0.36 | 0.202 | 0.206 | 0.169 | 0.204 | 0.153 | 0.231 | 0.281 | 0.168 | 0.266 | 0.212 | 0.953 | 0.887 | 0.683 | 0.775 | 0.469
NCI-H1755 | 0.492 | 0.53 | 0.356 | 0.65 | 0.407 | 0.544 | 0.488 | 0.444 | 0.419 | 0.488 | 0.619 | 0.617 | 0.613 | 0.515 | 0.543 | 0.876 | 0.988 | – | 0.972 | 0.745
NCI-H1793 | 0.629 | 0.503 | 0.346 | 0.239 | 0.13 | 0.153 | 0.182 | 0.153 | 0.164 | 0.157 | 0.317 | 0.354 | 0.293 | 0.176 | 0.143 | 0.723 | – | 0.408 | 0.338 | 0.32
NCI-H1915 | 0.791 | 0.716 | 0.638 | 0.685 | 0.653 | 0.845 | 0.818 | 0.422 | 0.792 | 0.462 | 0.42 | 0.475 | 0.402 | 0.39 | 0.346 | 1.08 | 1.08 | 1.08 | 1.05 | 0.709
NCI-H1944 | 0.584 | 0.621 | 0.4 | 0.505 | 0.313 | – | 0.669 | – | 0.523 | 0.306 | 0.255 | 0.248 | 0.221 | 0.218 | 0.16 | 0.878 | 0.929 | – | 0.599 | 0.327
NCI-H1975 | 0.855 | 0.847 | 0.619 | 0.362 | 0.303 | 0.289 | 0.174 | 0.311 | 0.123 | 0.186 | 0.869 | – | 0.698 | 0.324 | 0.106 | – | 1.02 | 0.972 | 0.421 | 0.174
